≈ marks a conversion by molar mass, not a printed value. Calls of active or inactive are those of the source. No cut-off for these calls is given here.
Experiments:
[1] = biological target: T1, Human immunodeficiency virus type 1 reverse transcriptase (Human immunodeficiency virus 1, UniProt Q72547); assay: (§1) Binding affinity to wild type HIV1 reverse transcriptase by SPR assay
[2] = biological target: T1, Human immunodeficiency virus type 1 reverse transcriptase; assay: Inhibition of wild type HIV1 reverse transcriptase polymerase activity by scintillation counting assay
[3] = test system: Human immunodeficiency virus 1; assay: Antiviral activity against HIV1 with reverse transcriptase K103N/Y181C mutant in MT4 cells assessed as inhibition of virus-induced cytopathic effect; type: functional, organism-based; details: Human immunodeficiency virus 1, MT4
[4] = test system: Human immunodeficiency virus 1; assay: Antiviral activity against HIV1 with wild type reverse transcriptase in MT4 cells assessed as inhibition of virus-induced cytopathic effect; type: functional, organism-based; details: Human immunodeficiency virus 1, MT4
[5] = AUC (0 to infinity) in dog at 0.5 mg/kg, iv or 2 mg/kg, po; type: ADME, organism-based, Canis lupus familiaris; details: plasma
[6] = Clearance in dog at 0.5 mg/kg, iv or 2 mg/kg, po; type: ADME, organism-based, Canis lupus familiaris; details: in vivo
Caco-2 = assay: Apparent permeability across human Caco-2 cells; type: ADME, cell-based
[7] = Cmax in dog at 0.5 mg/kg, iv or 2 mg/kg, po; type: ADME, organism-based, Canis lupus familiaris; details: in vivo
[8] = test system: Human immunodeficiency virus 1; assay: Antiviral activity against HIV1 with reverse transcriptase Y181C mutant in MT4 cells assessed as inhibition of virus-induced cytopathic effect; type: functional, organism-based; details: Human immunodeficiency virus 1, MT4
[9] = Solubility of compound at pH 6.5; type: physicochemical; details: buffer
[10] = Bioavailability in dog at 2 mg/kg, po; type: ADME, organism-based, Canis lupus familiaris; details: in vivo
[11] = test system: Human immunodeficiency virus 1; assay: Antiviral activity against HIV1 with reverse transcriptase […] mutant in MT4 cells assessed as inhibition of virus-induced cytopathic effect; type: functional, organism-based; details: Human immunodeficiency virus 1, MT4
[12] = biological target: Human immunodeficiency virus type 1 reverse transcriptase (Human immunodeficiency virus 1) (UniProt Q72547); assay: as §1
Cytochrome P450 3A4 = Cytochrome P450 3A4 (Homo sapiens, UniProt P08684); assay: Inhibition of CYP3A4; type: ADME
[13] = test system: Human immunodeficiency virus 1; assay: Antiviral activity against HIV1 with reverse transcriptase K103N/L100I mutant in MT4 cells assessed as inhibition of virus-induced cytopathic effect; type: functional, organism-based; details: Human immunodeficiency virus 1, MT4
Liver microsomes = assay: Clearance in rat liver microsome per mg of protein; type: ADME

Cytochrome P450 3A4, sequence (P08684 whole entry): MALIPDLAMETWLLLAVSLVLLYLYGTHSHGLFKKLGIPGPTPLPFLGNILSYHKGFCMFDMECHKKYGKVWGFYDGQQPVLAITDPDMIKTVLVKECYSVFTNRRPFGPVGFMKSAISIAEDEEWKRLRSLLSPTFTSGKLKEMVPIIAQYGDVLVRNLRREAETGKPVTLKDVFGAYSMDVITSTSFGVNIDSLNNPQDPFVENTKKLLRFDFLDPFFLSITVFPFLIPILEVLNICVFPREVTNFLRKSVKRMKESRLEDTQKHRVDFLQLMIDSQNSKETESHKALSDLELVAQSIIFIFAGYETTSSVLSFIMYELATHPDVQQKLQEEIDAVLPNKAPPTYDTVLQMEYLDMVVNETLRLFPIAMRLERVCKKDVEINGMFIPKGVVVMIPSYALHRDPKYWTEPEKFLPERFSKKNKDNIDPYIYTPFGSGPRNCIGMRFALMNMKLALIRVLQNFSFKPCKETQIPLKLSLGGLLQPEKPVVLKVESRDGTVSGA

IC50 [2] [nM] | SMILES | EC50 [3] [nM] | EC50 [4] [nM] | further results
230 | CN(C)c1cc(Cc2ccc(Cl)c(Oc3cccc(Br)c3)c2)n[nH]c1=O |  |  | 
50 | CC1OC(Cc2ccc(Cl)c(Oc3cccc(Br)c3)c2)=NNC1=O (stereo not given) |  |  | 
5800 | O=c1[nH]nc(Cc2ccc(Cl)c(Oc3cccc(Br)c3)c2)o1 |  |  | 
18000 | Cn1c(Cc2cccc(Oc3ccccc3)c2)n[nH]c1=O |  |  | Kd [1]: 3000 nM
530 | O=c1[nH]nc(Cc2ccc(Cl)c(Oc3cccc(Br)c3)c2)s1 |  |  | 
330 | Cc1nc(Cc2ccc(Cl)c(Oc3cccc(Br)c3)c2)n[nH]c1=O |  |  | 
130 | Cc1cc(Cc2ccc(Cl)c(Oc3cccc(Br)c3)c2)n[nH]c1=O |  |  | 
690 | Cn1c(Cc2ccc(Cl)c(Oc3cccc(Br)c3)c2)n[nH]c1=O |  |  | 
150 | CN1CC(Cc2ccc(Cl)c(Oc3cccc(Br)c3)c2)=NNC1=O |  |  | 

The remaining lines, values behind:

SMILES | IC50 [2] [nM] | EC50 [3] [nM] | EC50 [4] [nM] | further results
COc1c(Br)ccc(Cc2n[nH]c(=O)n2C)c1F | 34000 |  |  | Kd [1]: 4000 nM
Cn1c(Cc2ccc(Cl)c(Oc3cc(Cl)cc(C#N)c3)c2F)n[nH]c1=O | 11 | 39 | 8 | 
Cn1c(Cc2ccc(C3CC3)c(Oc3cc(Cl)cc(C#N)c3)c2F)n[nH]c1=O |  | 11 | 2 | 
Cn1c(Cc2ccc(Br)cc2)n[nH]c1=O | > 100000 |  |  | Kd [1]: 388000 nM
Cn1c(Cc2ccc(Br)c(Oc3cc(Cl)cc(C#N)c3)c2F)n[nH]c1=O | 5 | 9 | 2 | AUC(0-inf) [5]: 38.4 µM·h; Kd [1]: 4 nM; clearance [6]: 1.5 mL/min/kg; Papp (Caco-2): 15.1 10^-6 cm/s; Cmax [7]: 1300 nM; EC50 [8]: 5 nM; solubility [9]: 2.4 µg/mL (≈ 5.48 µM); bioavailability [10]: 74%; EC50 [11]: 1 nM
Cn1c(Cc2ccccc2)n[nH]c1=O | > 100000 |  |  | Activity [12]: inactive
CC1OC(Cc2ccc(Cl)c(Oc3cc(Cl)cc(C#N)c3)c2F)=NNC1=O (stereo not given) | 13 | 34 | 5 | IC50 (Cytochrome P450 3A4): 270 nM
Cc1cc(Cc2ccc(Cl)c(Oc3cc(Cl)cc(C#N)c3)c2F)n[nH]c1=O |  | 19 | 1 | EC50 [13]: 4 nM
C[C@H]1NC(Cc2ccc(Cl)c(Oc3cc(Cl)cc(C#N)c3)c2F)=NNC1=O | 11 | 72 | 8 | clearance (Liver microsomes): 130 µL/min/mg
C[C@H]1CC(Cc2ccc(Cl)c(Oc3cc(Cl)cc(C#N)c3)c2F)=NNC1=O | 17 |  | 32 | 
Cc1ccc(Cc2n[nH]c(=O)n2C)c(F)c1Oc1cc(Cl)cc(C#N)c1 |  | 26 | 2 | IC50 (Cytochrome P450 3A4): 12000 nM
Cn1c(Cc2ccc(Br)cc2F)n[nH]c1=O | > 10000 |  |  | Kd [1]: 102000 nM
CCc1ccc(Cc2n[nH]c(=O)n2C)c(F)c1Oc1cc(Cl)cc(C#N)c1 |  | 4 | 2 | 
Cc1n[nH]c(=O)n1C | > 100000 |  |  | Activity [12]: inactive

Reference: ChEMBL document CHEMBL1155865, “Discovery of triazolinone non-nucleoside inhibitors of HIV reverse transcriptase” (Bioorg Med Chem Lett, 2008)
